One data set has as its target T1, B1EPH2 (Streptomyces sp. CBMAI 2042, UniProt A0ACD6BAW7).
T1 construct: gene STAN_0072; ORF in pET-29b(+), E. coli BL21(DE3), nickel IMAC and gel filtration; protomer 37 kDa, hexamer (252 kDa by gel filtration)
The experiment in a line: adrenaline test (periodate back-titration, […] nm). The data set is classed as biochemical. The settings on record: pH 6.0 sodium phosphate; racemic substrate in DMSO.

Data set [1] deals with the molecule itself. The data set is described as follows: crystal structure; X-ray, 2.2 Å, space group P4(1)22; hanging drop, 0.1 M sodium cacodylate pH 6.5, 1 M trisodium citrate, protein 12.5 mg/ml in 50 mM HEPES pH 8.0, 300 mM NaCl; three protomers in the asymmetric unit, hexamer by twofold crystallographic symmetry.

Consider `c1ccc(OCC2CO2)cc1` (racemic) [compound 3, phenyl glycidyl ether], for which the “% conversion relative to 1,2-cyclohexanediol” value on B1EPH2 amounted to 25%.

B1: B1EPH2, α/β-epoxide hydrolase from Streptomyces sp. CBMAI 2042 (enzyme)
chain: VPQPPTDDPTTPAEKGAVHRLVDTPGGRIHLVEQGTGPLVLLVHGFPESWYSWRHQLPALAAAGYRAAAIDVRGYGRSAKPAATDAYRMLAHVADNTAVVHALGEETATVVGHDWGSPIAANSALLRPDVFTAVGLLSVPYAPRGEHRPTDGFARIGGDEEFYVSYFQAPGRAEAEIERDVRGWLAGFYTGLTGGALTPEEHGRLFFVPPGAHLADRFPTGPLPAWLTEADLDVYSGEFERSGLTGALNRYRNVDRDWEDLAAWHGAPITQPSLFIGGALDASTTWMADALDAYPATLPGLSAAHILEGCGHWIQQERPDEVNRLLTQWLDGLR
notes: B1EPH2, putative α/β-epoxide hydrolase of Streptomyces sp; CBMAI 2042; the text says 344 amino acids; the b1eph2 ORF was amplified from genomic DNA and cloned into pET-29b(+) (plasmid pGTEPH2); Hexamer by the crystal structure (three protomers in the asymmetric unit, twofold crystallographic symmetry) and by analytical gel filtration; they are surmised from pET-29b(+) and the nickel column; also …
One may read the stoichiometry N as the number of molecules, sites or subunits per partner or assembly. Consider B1, for which the “stoichiometry N” value in data set [1] was determined as 6.
